SMILES strings stand for the structures.

These results are taken from ChEMBL document CHEMBL1137454, “Natural bromophenols from the marine red alga Polysiphonia urceolata (Rhodomelaceae): structural elucidation and DPPH radical-scavenging activity” (Bioorg Med Chem, 2007).

The nature of this experiment: DPPH radical scavenging activity relative to control. It counts as functional. For orientation: The DPPH test is a chemical assay of radical scavenging.
In the case of `CC(=O)/C=C/c1cc(O)c(O)c(Br)c1`, it took 9.67 µM to reach half-maximal inhibition (IC50). This counts as single-digit micromolar.

As to `CCCCOC(=O)Cc1cc(Br)c(O)c(Br)c1`, half-maximal inhibition (IC50) was put at 16.1 µM.

On to `O=C(O)C(Cc1cc(O)c(O)c(Br)c1)c1cc(Br)c(O)c(Br)c1` (stereo not given), for which inhibition was half-maximal at 21.9 µM (IC50). `Oc1cc(CCc2cc(O)c(O)c(Br)c2)cc(Br)c1O`: inhibition was half-maximal at 19.6 µM (IC50). With `Cc1cc(C(C)(C)C)c(O)c(C(C)(C)C)c1` [BUTYLATED HYDROXYTOLUENE] the figure was 83.8 µM.
